Results reported in patent publication US4783410A (priority 1985, dated 1988).
“Also recorded” adds a separate entry of the source.

Tests used:
[1] = molecular target: CTL serine esterase (G4 extract) (Mus musculus, UniProt P11032); assay: biochemical; assay type: biochemical, murine
[2] = test system: specific target cell lysis of P815 cells by CTL clone G4; assay type: cell-based, murine
[3] = test system: G4 cells
[4] = test system: specific target cell lysis of P815 cells by CTL clone G4; conditions: cited from earlier work

Chain of CTL serine esterase (G4 extract) (P11032 29-260): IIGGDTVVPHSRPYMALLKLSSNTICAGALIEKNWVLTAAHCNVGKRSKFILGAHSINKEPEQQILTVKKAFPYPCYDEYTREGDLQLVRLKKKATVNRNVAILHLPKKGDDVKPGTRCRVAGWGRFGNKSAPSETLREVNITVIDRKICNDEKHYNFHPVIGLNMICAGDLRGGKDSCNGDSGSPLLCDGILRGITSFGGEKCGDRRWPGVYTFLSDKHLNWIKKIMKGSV

Structure (SMILES)	Inhibition of CTL esterase activity (in words) [1]	Inhibition of lysis of P815 cells by cloned anti-D^d G4 cells [2]	Toxicity to G4 cells by 51Cr release or reduced recovery of viable (trypan blue-negative) cells [3]	Block of CTL cytotoxicity [4]	inhibition at 500 µM ([1]; read-out: Percent Inhibition of esterase activity) [%]
O=S(=O)(F)Cc1ccccc1 [PMSF, phenylmethylsulfonyl fluoride]	blocked completely; also recorded: completely inhibitable	clearly inhibits lysis	no additive toxicity		
Cc1ccc(S(=O)(=O)NC(CCCCN)C(=O)CCl)cc1 (stereo not drawn) [TLCK, N^alpha -tosyl lysyl chloromethyl ketone]	not, however, inhibited			known to block CTL cytotoxicity	4.6
